Test results as given in patent US20220401514A1, “ANTIMICROBIAL, BACTERIOPHAGE-DERIVED POLYPEPTIDES AND THEIR USE AGAINST GRAM-NEGATIVE AND ACID-FAST BACTERIA” (CONTRAFECT CORPORATION, priority 2019, published 2022).

Legend:
[1] = system: carbapenem-resistant P. aeruginosa clinical isolate CFS-1292; assay: MIC by modified CLSI broth microdilution against P. aeruginosa CFS-1292 (CAA, CAA + human serum); format: cell-based, Pseudomonas aeruginosa; details: for MIC (μg/mL) against CFS-1292 in 100% CAA (1st run/2nd run): 1st run or single value
Enterobacter cloacae = assay: microbe, parasite or virus in culture; format: cell-based; details: Enterobacter cloacae ATCC 13047; CAA supplemented with human serum
Description: (§1) Determination of Minimal Inhibitory Concentrations (MIC).
(§2) Additional MIC testing was performed for several peptides against the ESKAPE pathogens Escherichia coli, Enterobacter cloacae, Klebsiella pneumoniae, and Acinetobacter baumannii, in CAA supplemented with human serum (Table D).

Escherichia coli = assay: microbe, parasite or virus in culture; format: cell-based; details: Escherichia coli ATCC 25922; CAA supplemented with human serum
Description: as §1, §2

Klebsiella pneumoniae = format: cell-based; details: Klebsiella pneumoniae HM-44; CAA supplemented with human serum
Description: as §1, §2

Acinetobacter baumannii = assay: microbe, parasite or virus in culture; format: cell-based; details: Acinetobacter baumannii ATCC BAA 747; CAA supplemented with human serum
[2] = Stability assessment in 100% CAA; format: in vitro ADME; parameters: unit not given beside the values
Description: Stability was assessed after incubation in 100% human serum at 37° C. after 10 minutes, 1 hour, and 2 hours.
Stability assessment was further conducted in 100% CAA and rabbit serum using the same methodology discussed above.

M. smegmatis = assay: 45 hr MIC against M. smegmatis (NTM), Mueller Hinton broth; format: cell-based, Mycobacterium smegmatis; details: M. smegmatis MC^2 155, Run #1

Sequence	MIC (μg/mL) against CFS-1292 in 100% CAA (1st run/2nd run) [1] [µg/mL]	MIC (Enterobacter cloacae) [µg/mL]	MIC (Escherichia coli) [µg/mL]	MIC (Klebsiella pneumoniae) [µg/mL]	MIC (Acinetobacter baumannii) [µg/mL]	MIC (100% CAA) [2]	45 hr MIC (M. smegmatis) [µg/mL]	MIC (μg/mL) against CFS-1292 in CAA + […] human serum [1] [µg/mL]	MIC (μg/mL) against CFS-1292 in CAA + […] human serum ([1]; listed as CPAR39 + DTT) [µg/mL]	MIC (μg/mL) against CFS-1292 in CAA + […] human serum ([1]; listed as CPAR39 − DTT) [µg/mL]
MAGKKMVSKGKDRQIFRKTADRTKKMNVRPLLYRGGIRL [Chp12]	8	32	8	16	1	8	64	–	–	–
MKRKPMSRKASQKTFKKNTGVQRMNHLNPRAMRGGIRL [Bdp1]	16	>32	>32	>32	>32	16	32	>32	–	–
MAKKMTKGKDRQVFRKTADRTKKLNVRPLLYRGGIRL [Chp11]	16	32	2	16	32	16	32	4	–	–
MAKRHKIPQRASQHSFTRHAQKVHPKNVPRLPMRGGIRL [AVQ244]	64	–	–	–	–	64	64	–	–	–
MRRYNVNKGKSAKKFRKQVSKTKVANLRSNPMRGGWRL [Unp6]	–	–	–	–	–	8	16	–	–	–
MCKKVCKKCPKKGPKNAPKIGAFYERKTPRLKQST [CPAR39]	4	–	–	–	–	4	>128	1	4	64
